Here are results for ten molecules from ChEMBL document CHEMBL1201862, “PubChem BioAssay data set” (2004).

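Step 1: Grow cells in 96-well plates. Step 2: Expose to compound for 48 hours at 5 concentrations. Step 3: Interpolate endpoints linearly; if unreached, use highest concentration. At the GI50, growth is halved.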 The source made the active and inactive calls. No stated cut-off is given here; in the data, active = GI50 up to about 1.1 µM and inactive = higher. A value given as a limit tells only on which side of the number the result lay.

Common to all, as to assay: NCI tumour cell line growth inhibition, 48 h
Test [1] has as its system Hs-578T.
The test system of test [2] is IGROV-1.
Test [3] deals with SR.
Test [4] has as its system NCI/ADR-RES.
Test [5] deals with UACC-62.
Test [6] has as its system LOX IMVI.
Test [7] concerns KM12.
For test [8], the system named is SK-MEL-28.
Test [9] has as its system RPMI-8226.
In test [10] the test system is SN12C.
The subject of test [11] is SNB-19.
Test [12] has as its system SK-MEL-2.
For test [13], the system named is U-251.
Test [14] relates to ACHN.
Test [15] relates to HOP-92.
For test [16], the system named is UO-31.
Test [17] concerns OVCAR-8.
Test [18] relates to OVCAR-4.
For test [19], the system named is SK-OV-3.
Test [20] relates to HCT-15.

As to `Cn1cnc([N+](=O)[O-])c1Sc1nc(N)nc2c1ncn2Cc1ccccc1`, the GI50 in [1] is 20.5 µM (inactive); in test [2], 14.5 µM (inactive); in [3], 17.9 µM (inactive); in [4], 51.9 µM (inactive); in [5], 16.3 µM (inactive); in test [6], 19.6 µM (inactive). The GI50 is 30 µM (inactive) in test [7]; 20.5 µM (inactive) in test [8]; 19 µM (inactive) in test [9]; 15.8 µM (inactive) in test [10]; 42.7 µM (inactive) in [11]; 15.8 µM (inactive) in test [12]. The GI50 in [13] was 21.8 µM (inactive); in test [14] it was 15.3 µM (inactive); in test [15] it was 12 µM (inactive); in test [16] it was 15.5 µM (inactive); in [17], 18.1 µM (inactive); in [18], 20.8 µM (inactive). Also, the GI50 in test [19] was 24.5 µM (inactive); in test [20] it was 18 µM.

As for `COc1cccc(NC(=O)CC(=O)N2N=C(C)C(/N=N\c3ccc(S(=O)(=O)c4ccc(/N=N/C5C(=O)N(C(=O)CC(=O)Nc6cccc(OC)c6)N=C5C)cc4)cc3)C2=O)c1` (stereo not given), the GI50 in test [1], in [2], in test [3], in test [4], in test [5] and in test [6] was > 100 µM (inactive) each time. Besides, the GI50 in test [7], in test [8], in test [9], in [10], in test [11] and in [12] was > 100 µM (inactive) throughout. The GI50 in test [13], in test [14], in test [15], in test [16], in [17] and in [18] was > 100 µM (inactive) in each case. Moreover, the GI50 in test [19] was > 100 µM (inactive); in test [20] it was more than 100 µM.

`Cc1nc2nn[nH]n2c(=O)c1CCO`: the GI50 in [1], in test [2], in test [3], in test [4], in [5] and in test [6] was > 100 µM (inactive) each time. For the same molecule, the GI50 in [7], in test [8], in [9], in [10], in [11] and in test [12] was > 100 µM (inactive) throughout. Moreover, the GI50 in [13], in test [14], in [15], in test [16], in test [17] and in test [18] was > 100 µM (inactive) throughout. For the same molecule, the GI50 in test [19] is > 100 µM (inactive); in test [20], more than 100 µM.

Turning to `COc1ccc2nc3ccc(OC)cc3c([S+]([O-])Cc3ccccc3)c2c1` (stereo not given), the GI50 is 8.22 µM (inactive) in test [1]; 7.96 µM (inactive) in test [2]; 3.04 µM (inactive) in [3]; 20.3 µM (inactive) in test [4]; 14.8 µM (inactive) in test [5]; 2.07 µM (inactive) in test [6]. Also, the GI50 in test [7] was 17.8 µM (inactive); in test [8], 9.33 µM (inactive); in [9], 2.3 µM (inactive); in [10], 7.62 µM (inactive); in test [11] it was 18 µM (inactive); in test [12] it was 17 µM (inactive). Moreover, the GI50 in test [13] was 20.5 µM (inactive); in test [14], 4.03 µM (inactive); in test [15] it was 4.76 µM (inactive); in [16], 6.87 µM (inactive); in [17], 3.48 µM (inactive); in [18], 14.9 µM (inactive). Further, the GI50 in test [19] was 18.8 µM (inactive); in [20], 6.61 µM.

On to `CCOC(=O)C(SCCO)C(C(=O)OCC)n1cnc2c(N)ncnc21` (stereo not given), for which the GI50 is 17.3 µM (inactive) in [1]; 16.1 µM (inactive) in [2]; 4.63 µM (inactive) in [3]; 19.8 µM (inactive) in test [4]; 12.3 µM (inactive) in test [5]; 5.61 µM (inactive) in test [6]. Further, the GI50 in test [7] was 17.1 µM (inactive); in test [8] it was 17.3 µM (inactive); in test [9], 5.04 µM (inactive); in test [10], 9.98 µM (inactive); in [11], 28.5 µM (inactive); in [12], 15.8 µM (inactive). Also, the GI50 is 7.26 µM (inactive) in [13]; 10.5 µM (inactive) in [14]; 2.47 µM (inactive) in [15]; 20.7 µM (inactive) in test [16]; 13.9 µM (inactive) in test [17]; 18.7 µM (inactive) in test [18]. For the same molecule, the GI50 is 54.7 µM (inactive) in test [19] and 6.27 µM in test [20].

For `N/C(=N\Nc1ccc(Cl)cc1)c1cnccn1`, the GI50 is > 100 µM (inactive) in test [1]; > 100 µM (inactive) in test [2]; 5.71 µM (inactive) in test [3]; 44 µM (inactive) in [4]; 5.04 µM (inactive) in [5]; 84.1 µM (inactive) in test [6]. Further, the GI50 in [7] was > 100 µM (inactive); in [8] it was 73.6 µM (inactive); in [9] it was 78.3 µM (inactive); in test [10], > 100 µM (inactive); in [11], > 100 µM (inactive); in test [12], 58.1 µM (inactive). Also, the GI50 in test [13] was > 100 µM (inactive); in test [14] it was > 100 µM (inactive); in [15], > 100 µM (inactive); in test [16], 50.7 µM (inactive); in [17], > 100 µM (inactive); in test [18], 29.1 µM (inactive). The figures for the GI50 in test [19] and in test [20] were > 100 µM (inactive) and 21.4 µM, respectively.

As for `CSC(=Nc1nnc(-c2ccc([N+](=O)[O-])cc2)s1)SC`, the GI50 in test [1] was 28.3 µM (inactive); in test [2] it was 27.9 µM (inactive); in test [3], > 100 µM (inactive); in test [4], 33.5 µM (inactive); in test [5] it was 25.8 µM (inactive); in test [6], 31.9 µM (inactive). Also, the GI50 in test [7] was > 94.8 µM (inactive); in test [8] it was 77.4 µM (inactive); in test [9] it was > 100 µM (inactive); in test [10] it was 52.2 µM (inactive); in test [11] it was 23.9 µM (inactive); in test [12] it was 26.7 µM (inactive). The GI50 in test [13] is 21.4 µM (inactive); in [14], 42.9 µM (inactive); in test [15], 9.25 µM (inactive); in test [16] it was 27.9 µM (inactive); in test [17], 34.4 µM (inactive); in test [18], 45.8 µM (inactive). Also, the results for the GI50 in test [19] and in test [20] were 27.6 µM (inactive) and more than 95.5 µM, respectively.

As for `O[C@H]1[C@H](O)[C@H](O)CN2CCC[C@@H](O)[C@H]12`, the GI50 in test [1], in [2], in test [3], in [4], in test [5] and in [6] was > 100 µM (inactive) each time. In addition, the GI50 in test [7], in test [8], in [9], in test [10], in test [11] and in test [12] was > 100 µM (inactive) each time. The GI50 in test [13], in test [14], in test [15], in [16], in [17] and in [18] was > 100 µM (inactive) each time. In addition, the values for the GI50 in test [19] and in test [20] were > 100 µM (inactive) and more than 100 µM, respectively.

As for `COc1cc(C2C=C(c3ccccc3)Oc3cc4c(cc32)OCO4)cc(OC)c1OC` (stereo not given), the GI50 in [1] was 0.348 µM (active); in [2], 0.403 µM (active); in [3], 0.333 µM (active); in test [4], 0.312 µM (active); in [5], 0.446 µM (active); in test [6] it was 0.569 µM (active). In addition, the GI50 in [7] is 0.38 µM (active); in test [8], 0.57 µM (active); in [9] it was 0.555 µM (active); in [10], 0.675 µM (active); in test [11] it was 3.94 µM (inactive); in [12] it was 1.91 µM (inactive). The GI50 is 0.449 µM (active) in [13]; 1.53 µM (inactive) in [14]; 15 µM (inactive) in test [15]; 1.19 µM (inactive) in [16]; 0.502 µM (active) in test [17]; 6.37 µM (inactive) in test [18]. Also, the figures for the GI50 in [19] and in test [20] were 0.191 µM (active) and 0.324 µM, respectively.

Turning to `O=c1[nH]c(=O)n(C2CC(O)C(CO)O2)cc1I` (stereo not given), the GI50 in test [1] was > 100 µM (inactive); in test [2], > 100 µM (inactive); in test [3], 38.7 µM (inactive); in test [4], > 100 µM (inactive); in test [5] it was > 100 µM (inactive); in [6] it was > 87.1 µM (inactive). Also, the GI50 was > 100 µM (inactive) in test [7]; > 100 µM (inactive) in test [8]; > 43.8 µM (inactive) in [9]; 89.9 µM (inactive) in test [10]; > 100 µM (inactive) in test [11]; > 100 µM (inactive) in test [12]. The GI50 in test [13], in test [14], in [15], in test [16], in [17] and in [18] was > 100 µM (inactive) each time. In addition, the results for the GI50 in test [19] and in [20] were > 100 µM (inactive) and more than 100 µM, respectively.
